Data taken from patent US20250109127A1, “METHODS OF USE OF PHENOXYPROPYLAMINE COMPOUNDS TO TREAT DEPRESSION” (Minerva Neurosciences, Inc., priority 2013, published 2025).
Several values for one entry are separate records, joined by “and”; a condition that tells them apart may be missing. Equal entries are not always repeated. Structures can show the parent of a compound that is named as a salt.

Key:
[1] = system: 5-HIAA release in the rat prefrontal cortex; assay: Microdialysis: 5-HIAA release in prefrontal cortex after I.P. administration; assay type: in vivo; details: for 5-HIAA release (% of basal levels) measured in dialysates: individual animals, hydrochloride, 3 mg/kg; for 5-HIAA release (% of basal levels) measured in dialysates, MEAN / 5-HIAA (% of respective basal) MEAN: n = 8; for 5-HIAA (% of respective basal) MEAN: SON-117 group 0.1 mg/kg I.P.
Experimental: The aim of the study was to evaluate, using microdialysis, the effects of an intraperitoneal (I.P.) administration in rats of three different doses of SON-117 on dopamine and its metabolites, serotonin and its metabolite (5-HIAA), and norepinephrine levels in prefrontal cortex.
Thirty-two adult male Wistar rats were used for the whole study (4 groups of eight animals planned for the study, Table 1).
Surgery was performed on rats weighing about 300 g at the beginning of the experiments. Rats were anaesthetized with Ketamine (50 mg/kg) & Xylazine (15 mg/kg) by intramuscular administration. The animals were placed in a stereotaxic apparatus in the flat-skull position at a constant setting of −3.3 mm between ear bars and the incisor bar. The animals were treated with a local anesthesic (xylocaine 1%, Astra Zeneca) and an analgesic (Temgesic, from Schering Plough, 0.05 mg/kg, s.c.). A rostrocaudal midline incision was made with a lancet to expose the dorsal skull surface. The “stereotaxic zero” was defined by the Bregma in accordance with Paxinos and Watson's atlas (1986). A hole was drilled in the skull with a drill and the meninges were pierced with a sterile needle to implant a CMA12 guide cannula which later received the dialysis probe.
Coordinates used for implanting guide cannula in prefrontal cortex from Bregma were anteroposterior 3.7 mm, mediolateral 0.8 mm, and dorsoventral −2 mm (top of the probe was at −5 mm). The guide cannula was fixed to the skull with two stainless steel screws (1.88 mm outside diameter) anchored. An application of dental cement was added. A plastic collar allowed each animal to be tethered to a Swivel assembly of the CMA 120 awake animal system. Following surgery, rats were kept in individual cages and allowed to recover for a minimum of 3-5 days before the experimentation. The rats were handled and put in plastic bowl for 10 min at least every day to habituate the animals to their new environment for the dialysis. An I.P. administration with saline was also performed every day.
Dialysis probes (CMA12/3 mm, membrane, 20 kD cut-off, Carnegie Medicine, Stockholm, Sweden), were carefully washed before inserting into the guide cannula. The wash was performed with the artificial cerebrospinal fluid (aCSF) medium (NaCl 147 mM, KCl 2.7 mM, CaCl2 1.2 mM, MgCl2 0.85 mM) at room temperature. The dialysis system was then equilibrated at 20° C. at a perfusion rate of 1 μl/min with a Carnegie pump (CMA100). All catheters (FEP tubing, internal volume of 1.2 μl/10 cm, and tubing adaptors) used for microdialysis were treated in the same conditions.
The probes duly prepared were inserted into the guide cannula and the CMA120 Swivel assembly secured to the animal using a plastic collar. Flow through the dialysis probe with aCSF was maintained at a rate of 1 μl/min during the whole experimentation. The first four fractions (corresponding to 2 hours) were discarded to avoid the effects of parenchymal disturbance and to ensure that an approximate steady-state level was reached. Fractions were then collected over a period of 8.5 h during which time the animals remained quiet. The dialysates were automatically collected with an autosampler (microfraction collector CMA 140, Carnegie Medicin) and stored at −80° C. until analysis. […] Perfusion was then maintained for 7 hours with aCSF. The dialysates (30 μl) were collected into 300 μl vials, transferred into dry ice and then kept frozen (−80° C.) until analysis. Frozen samples were shipped to a partner for analysis. At the end of the microdialysis study, a PBS with colored ink was perfused through the probe in order to visualize the dialyzed area.
Catecholamine assay: Concentrations of dopamine, DOPAC, HVA, 5-HIAA, 5-HT, and norepinephrin were determined for each sample by HPLC coupled with electrochemical detection.

[2] = system: animals exposed to chronic mild stress; assay: Novel object recognition test after CMS and treatment withdrawal; assay type: in vivo, rat
From the text: After completion of the administration and withdrawal period, all control and stressed animals were placed in an open field (100 cm in diameter, 35 cm high) and allowed to explore two identical objects (cylinder-shaped object with walls painted white, 7 cm in diameter, 11 cm high) for the time required to complete 15 s of exploration of either object. For the retention trial conducted one hour later, one of the objects presented previously was replaced with a novel object (prism-shaped object with walls painted black, 5 cm wide, 14 cm high). Rats were returned to the open field for 5 min and the duration of exploration (i.e. sitting in close proximity to the objects, sniffing or touching them) of each object was measured separately by a trained observer. The data were calculated according to the following formula: [time of novel object exploration divided by time of novel plus familiar object exploration multiplied by 100]. The CMS and NOR data were analyzed by multiple analyses of variance with three between-subjects factors (stress/control, drug treatments and intakes in successive sucrose tests). The Fisher's LSD test was used for the post-hoc comparisons of means.

[3] = SON-117 3 mg/kg IP, T1 h 30-T2 h
[4] = SON-117 3 mg/kg IP, T1 h-T1 h 30
[5] = SON-117 3 mg/kg IP, T2 h 30-T3 h
[6] = SON-117 3 mg/kg IP, T2 h-T2 h 30
[7] = SON-117 3 mg/kg IP, T3 h 30-T4 h
[8] = SON-117 3 mg/kg IP, T3 h-T3 h 30
[9] = SON-117 3 mg/kg IP, T4 h 30-T5 h
[10] = SON-117 3 mg/kg IP, T4 h-T4 h 30
[11] = SON-117 3 mg/kg IP, T5 h 30-T6 h
[12] = SON-117 3 mg/kg IP, T5 h-T5 h 30
[13] = SON-117 3 mg/kg IP, T6 h 30-T7 h
[14] = SON-117 3 mg/kg IP, T6 h-T6 h 30

## Cc1nnc(-c2cc3c(OC[C@@H](O)CN4CCC(c5ccc(Cl)c(Cl)c5)CC4)cccc3o2)o1 [SON-117, (S)-1-(4-(3,4-dichlorophenyl)piperidino)-3-(2-(5-methyl-1,3,4-oxadiazol-2-yl)benzo(b)furan-4-yloxy)-2-propanol hydrochloride]
[1]; SON-117 3 mg/kg IP, T30-T1 h
  5-HIAA release (% of basal levels) measured in dialysates: 107.55 % of basal levels and 89.33 % of basal levels and 88.65 % of basal levels and 110.35 % of basal levels and 117.87 % of basal levels and 100.51 % of basal levels and 111.18 % of basal levels and 105.33 % of basal levels
[1]; [3]
  5-HIAA release (% of basal levels) measured in dialysates, MEAN: 88.78 % of basal levels
  5-HIAA release (% of basal levels) measured in dialysates: 94.24 % of basal levels and 92.41 % of basal levels and 78.82 % of basal levels and 101.67 % of basal levels and 75.13 % of basal levels and 85.33 % of basal levels and 91.45 % of basal levels and 91.21 % of basal levels
[1]; [4]
  5-HIAA release (% of basal levels) measured in dialysates, MEAN: 98.52 % of basal levels
  5-HIAA release (% of basal levels) measured in dialysates: 108.67 % of basal levels and 95.26 % of basal levels and 83.80 % of basal levels and 110.78 % of basal levels and 108.78 % of basal levels and 87.31 % of basal levels and 96.27 % of basal levels and 97.27 % of basal levels
[1]; [5]
  5-HIAA release (% of basal levels) measured in dialysates, MEAN: 84.99 % of basal levels
  5-HIAA release (% of basal levels) measured in dialysates: 110.25 % of basal levels and 75.66 % of basal levels and 71.07 % of basal levels and 93.25 % of basal levels and 73.18 % of basal levels and 83.94 % of basal levels and 86.24 % of basal levels and 86.32 % of basal levels
[1]; [6]
  5-HIAA release (% of basal levels) measured in dialysates, MEAN: 85.83 % of basal levels
  5-HIAA release (% of basal levels) measured in dialysates: 99.74 % of basal levels and 84.01 % of basal levels and 68.40 % of basal levels and 89.07 % of basal levels and 81.80 % of basal levels and 77.11 % of basal levels and 98.05 % of basal levels and 88.46 % of basal levels
[1]; [7]
  5-HIAA release (% of basal levels) measured in dialysates, MEAN: 82.25 % of basal levels
  5-HIAA release (% of basal levels) measured in dialysates: 103.09 % of basal levels and 75.36 % of basal levels and 71.57 % of basal levels and 91.17 % of basal levels and 72.73 % of basal levels and 78.31 % of basal levels and 82.53 % of basal levels and 83.23 % of basal levels
[1]; [8]
  5-HIAA release (% of basal levels) measured in dialysates, MEAN: 83.71 % of basal levels
  5-HIAA release (% of basal levels) measured in dialysates: 100.53 % of basal levels and 78.33 % of basal levels and 73.76 % of basal levels and 91.10 % of basal levels and 69.55 % of basal levels and 76.15 % of basal levels and 84.48 % of basal levels and 95.78 % of basal levels
[1]; [9]
  5-HIAA release (% of basal levels) measured in dialysates, MEAN: 75.41 % of basal levels
  5-HIAA release (% of basal levels) measured in dialysates: 90.13 % of basal levels and 63.71 % of basal levels and 68.51 % of basal levels and 75.52 % of basal levels and 72.02 % of basal levels and 83.31 % of basal levels and 83.67 % of basal levels and 66.44 % of basal levels
[1]; [10]
  5-HIAA release (% of basal levels) measured in dialysates, MEAN: 77.54 % of basal levels
  5-HIAA release (% of basal levels) measured in dialysates: 91.08 % of basal levels and 55.23 % of basal levels and 70.28 % of basal levels and 91.20 % of basal levels and 65.52 % of basal levels and 74.09 % of basal levels and 86.17 % of basal levels and 86.73 % of basal levels
[1]; [11]
  5-HIAA release (% of basal levels) measured in dialysates, MEAN: 71.99 % of basal levels
  5-HIAA release (% of basal levels) measured in dialysates: 82.54 % of basal levels and 68.32 % of basal levels and 64.58 % of basal levels and 71.77 % of basal levels and 60.86 % of basal levels and 67.49 % of basal levels and 79.74 % of basal levels and 80.63 % of basal levels
[1]; [12]
  5-HIAA release (% of basal levels) measured in dialysates, MEAN: 72.53 % of basal levels
  5-HIAA release (% of basal levels) measured in dialysates: 84.10 % of basal levels and 66.07 % of basal levels and 66.30 % of basal levels and 74.75 % of basal levels and 64.08 % of basal levels and 74.08 % of basal levels and 79.04 % of basal levels and 71.85 % of basal levels
[1]; [13]
  5-HIAA release (% of basal levels) measured in dialysates, MEAN: 73.41 % of basal levels
  5-HIAA release (% of basal levels) measured in dialysates: 83.14 % of basal levels and 67.51 % of basal levels and 58.65 % of basal levels and 82.71 % of basal levels and 65.19 % of basal levels
[1]; [14]
  5-HIAA release (% of basal levels) measured in dialysates, MEAN: 69.60 % of basal levels
  5-HIAA release (% of basal levels) measured in dialysates: 74.73 % of basal levels and 64.32 % of basal levels and 54.46 % of basal levels and 81.53 % of basal levels and 68.15 % of basal levels and 73.95 % of basal levels and 70.08 % of basal levels
[1]; SON-117 3 mg/kg IP, T-30 min-T0 (pre-administration)
  5-HIAA release (% of basal levels) measured in dialysates, MEAN: 102.90 % of basal levels
[1]; SON-117 3 mg/kg IP, T-1 h 30-T-1 h (pre-administration)
  5-HIAA release (% of basal levels) measured in dialysates, MEAN: 94.73 % of basal levels
[1]; SON-117 3 mg/kg IP, T-1 h-T-30 min (pre-administration)
  5-HIAA release (% of basal levels) measured in dialysates, MEAN: 102.37 % of basal levels
[1]; SON-117 3 mg/kg IP, from 2 h to 7 h
  5-HIAA concentration in prefrontal cortex, significant and stable decrease, max.: 72%
[1]; SON-117 3 mg/kg, at 3 h and 3.5 h
  levels of 5-HIAA compared to the citalopram treated group (significant): higher
[1]; T0-T30 min
  5-HIAA (% of respective basal) MEAN: 94.78 % of respective basal
[1]; T30-T1 h
  5-HIAA (% of respective basal) MEAN: 114.88 % of respective basal
[1]; T1 h 30-T2 h
  5-HIAA (% of respective basal) MEAN: 102.18 % of respective basal
[1]; T1 h-T1 h 30
  5-HIAA (% of respective basal) MEAN: 119.57 % of respective basal
[1]; T2 h 30-T3 h
  5-HIAA (% of respective basal) MEAN: 94.10 % of respective basal
[1]; T2 h-T2 h 30
  5-HIAA (% of respective basal) MEAN: 92.09 % of respective basal
[1]; T3 h 30-T4 h
  5-HIAA (% of respective basal) MEAN: 94.62 % of respective basal
[1]; T3 h-T3 h 30
  5-HIAA (% of respective basal) MEAN: 92.14 % of respective basal
[1]; T4 h 30-T5 h
  5-HIAA (% of respective basal) MEAN: 97.11 % of respective basal
[1]; T4 h-T4 h 30
  5-HIAA (% of respective basal) MEAN: 108.99 % of respective basal
[1]; T5 h 30-T6 h
  5-HIAA (% of respective basal) MEAN: 90.37 % of respective basal
[1]; T5 h-T5 h 30
  5-HIAA (% of respective basal) MEAN: 96.07 % of respective basal
[1]; T6 h 30-T7 h
  5-HIAA (% of respective basal) MEAN: 92.61 % of respective basal
[1]; T6 h-T6 h 30
  5-HIAA (% of respective basal) MEAN: 92.22 % of respective basal
[1]; T-30 min-T0 (before administration)
  5-HIAA (% of respective basal) MEAN: 101.47 % of respective basal
[1]; T-1 h 30-T-1 h (before administration)
  5-HIAA (% of respective basal) MEAN: 98.52 % of respective basal
[1]; T-1 h-T-30 min (before administration)
  5-HIAA (% of respective basal) MEAN: 100.01 % of respective basal
[2]; SON-117 0.001, 0.01 and 0.1 mg/kg, one week after withdrawal
  recognition index in stressed animals: restored
[2]; SON-117 1 mg/kg, stressed animals
  effect against the CMS-induced deficit in the novel object recognition: ineffective
[2]; SON-117 all doses (0.001-1 mg/kg IP), one week after withdrawal
  recognition index in control animals: no significant effect
